Data: US9078872B2, “Antioxidant composition” (Symrise AG, priority 2013, dated 2015)

Experiment: ORAC (OARC-fluorescein) determination of the antioxidant effect, Trolox as standard
Conditions: OARC-fluorescein method; calibration curve with Trolox as standard
Experimental: The antioxidant effect and the synergy between the individual components were determined according to the OARC-fluorescein method, in which inhibition time and the inhibition degree are reflected in a measured value. The measurements were performed by means of the device Synergy H4 by BioTek Inc., the calculated values were taken from a calibration curve with Trolox used as a standard. The method is described in more detail, for example, in the publications by Prior et. al., J. Agric Food. Chem. 50, pp. 4437-4444 […] and Dovalos et. al, ibid 52, pp. […] (2004). These publications are incorporated into this patent application by reference with regard to the description of the measuring method.

| SMILES | ORAC value, Measured |
| --- | --- |
| COc1cc(C=CC(=O)O)cc(OC)c1O (stereo in doubt) [Example V2, Sinapinic acid] | 11.459 |
| O=C(O)/C=C/c1ccc(O)c(O)c1 [Example V1, Caffeic acid] | 21.587 |
